# According to patent publication US4181716A, “Antibiotics” (Beecham Group Limited, priority 1974, dated 1980):
# Where a name gives a salt, the structure may show the parent alone.
# Experiments:
# [1] = tested on: Staphylococcus aureus, Bacillus subtilis, Escherichia coli, Klebsiella aerogenes, Proteus mirabilis, Salmonella typhi and Pseudomonas aeruginosa; test: antibacterial activity (property list); assay type: cell-based, bacteria; settings: sodium salt
# [2] = tested on: Escherichia coli, Klebsiella aerogenes, Proteus mirabilis, Proteus morganii and Staphylococcus aureus Russell; test: synergism with ampicillin (property list); assay type: cell-based, bacteria; settings: sodium salt
# Bacillus subtilis = test: antibacterial activity by bioautography (Table 4); assay type: cell-based; settings: TLC with cellulose, butanol/isopropyl alcohol/water 7:7:6 v/v
# Text: (§1) Analysis of the preparation by thin layer chromatography on cellulose (Eastman Kodak "Chromagram" sheets) developed with n-butanol; isopropanol:water (7:7:6) separated two active substances, one with an approximate Rf of 0.54 which was designated MM 4550 A and one with an approximate Rf of 0.72 which was designated MM 13902.
# (§2) 13902 AS DETERMINED BY BIOAUTOGRAPHY (TLC
# (§3) WITH CELLULOSE AND BUTONAL/ISOPROPYL
# (§4) ALCOHOL/WATER 7:7:6 v/v)
# Enterobacter aerogenes = test: antibacterial activity by bioautography (Table 4); assay type: cell-based; settings: TLC with cellulose, butanol/isopropyl alcohol/water 7:7:6 v/v
# Text: as §1, §2, §3, §4
# Escherichia coli 10418 = test: antibacterial activity by bioautography (Table 4); assay type: cell-based; settings: TLC with cellulose, butanol/isopropyl alcohol/water 7:7:6 v/v
# Text: as §1, §2, §3, §4
# Escherichia coli 311 = test: antibacterial activity by bioautography (Table 4); assay type: cell-based; settings: TLC with cellulose, butanol/isopropyl alcohol/water 7:7:6 v/v
# Text: as §1, §2, §3, §4
# Klebsiella aerogenes [3] = test: antibacterial activity by bioautography (Table 4); assay type: cell-based; settings: TLC with cellulose, butanol/isopropyl alcohol/water 7:7:6 v/v
# Text: as §1, §2, §3, §4
# Proteus mirabilis = test: antibacterial activity by bioautography (Table 4); assay type: cell-based; settings: TLC with cellulose, butanol/isopropyl alcohol/water 7:7:6 v/v
# Text: as §1, §2, §3, §4
# Proteus morganii = test: antibacterial activity by bioautography (Table 4); assay type: cell-based; settings: TLC with cellulose, butanol/isopropyl alcohol/water 7:7:6 v/v
# Text: as §1, §2, §3, §4
# Salmonella typhi = test: antibacterial activity by bioautography (Table 4); assay type: cell-based; settings: TLC with cellulose, butanol/isopropyl alcohol/water 7:7:6 v/v
# Text: as §1, §2, §3, §4
# [4] = tested on: Staphylococcus aureus (Oxford); test: antibacterial activity by bioautography (Table 4); assay type: cell-based; settings: TLC with cellulose, butanol/isopropyl alcohol/water 7:7:6 v/v
# Text: as §1, §2, §3, §4
# [5] = tested on: Staphylococcus aureus (Russell); test: antibacterial activity by bioautography (Table 4); assay type: cell-based; settings: TLC with cellulose, butanol/isopropyl alcohol/water 7:7:6 v/v
# Text: as §1, §2, §3, §4
# monoamine oxidase = test: enzyme inhibition (not a general enzyme poison); assay type: biochemical; settings: at concentrations in excess of those required to inhibit the β-lactamase of E. coli
# carbonic anhydrase = test: enzyme inhibition (not a general enzyme poison); assay type: biochemical; settings: at concentrations in excess of those required to inhibit the β-lactamase of E. coli
# dopa decarboxylase = test: enzyme inhibition (not a general enzyme poison); assay type: biochemical; settings: at concentrations in excess of those required to inhibit the β-lactamase of E. coli
# trypsin = test: enzyme inhibition (not a general enzyme poison); assay type: biochemical; settings: at concentrations in excess of those required to inhibit the β-lactamase of E. coli
# chymotrypsin = test: enzyme inhibition (not a general enzyme poison); assay type: biochemical; settings: at concentrations in excess of those required to inhibit the β-lactamase of E. coli
# urease = test: enzyme inhibition (not a general enzyme poison); assay type: biochemical; settings: at concentrations in excess of those required to inhibit the β-lactamase of E. coli
# [6] = tested on: Staphylococcus aureus, Bacillus subtilis, Escherichia coli, Klebsiella aerogenes, Proteus mirabilis, Acinetobacter anitratus, Serratia marcescens and Shigella …; test: antibacterial activity (property list); assay type: cell-based, bacteria; settings: substantially pure sodium salt
# solubility = assay type: physicochemical; settings: sodium salt
# stability = assay type: physicochemical
# Klebsiella aerogenes [7] = test: assay of activity in units against culture filtrate; assay type: cell-based
# Experimental: The MM 4550 (Complex) was eluted from the resin with 5% NaCl in 50% aqueous methanol. […] The MM 4550 (Complex) content of culture filtrate was arbitrarily set at 8 units/ml. The eluted fractions from the column were assayed using an antibacterial diffusion method against Klebsiella aerogenes and the activity units were calculated by reference to a standard line prepared by plotting zone diameter against units/ml. for various dilutions of culture filtrate (i.e. the culture filtrate was used as a standard).
# The material produced above was arbitrarily assigned an activity of 340 l/ml. Assays were determined as described in Description 3.
# Bacillus subtilis A = test: MIC, microtitre method (Table 10); assay type: cell-based; settings: heavy inoculum, 1/100 overnight broth
# Experimental: (§5) Partially purified MM 4550Adi-sodium salt (0.55 g) was chromatographed on a cellulose column (4.5 cm×29 cm; Whatman CC31 cellulose) eluted with n-propanol/water (4:1 v/v) at a flow rate of 2.5 ml./min. The first 135 ml of eluate was discarded and then 15 ml fractions collected.
# (§6) ANTIBACTERIAL ACTIVITY OF THE DI-SODIUM
# (§7) SALT OF MM 4550A ([…]-HEAVY
# (§8) INOCULUM, 1/100 OVERNIGHT BROTH
# Enterobacter cloacae N1 = test: MIC, microtitre method (Table 10); assay type: cell-based; settings: heavy inoculum, 1/100 overnight broth
# Experimental: as §5, §6, §7, §8
# Kleb. aerogenes A = test: MIC, microtitre method (Table 10); assay type: cell-based; settings: heavy inoculum, 1/100 overnight broth
# Experimental: as §5, §6, §7, §8
# Proteus mirabilis 13 = test: MIC, microtitre method (Table 10); assay type: cell-based; settings: heavy inoculum, 1/100 overnight broth
# Experimental: as §5, §6, §7, §8
# Proteus vulgaris WO 90 = test: MIC, microtitre method (Table 10); assay type: cell-based; settings: heavy inoculum, 1/100 overnight broth
# Experimental: as §5, §6, §7, §8
# Prov. stuartii = test: MIC, microtitre method (Table 10); assay type: cell-based; settings: heavy inoculum, 1/100 overnight broth
# Experimental: as §5, §6, §7, §8
# Ps. aeruginosa A = test: MIC, microtitre method (Table 10); assay type: cell-based; settings: heavy inoculum, 1/100 overnight broth
# Experimental: as §5, §6, §7, §8
# [8] = tested on: Salmonella typhimurium CT 10; test: MIC, microtitre method (Table 10); assay type: cell-based; settings: heavy inoculum, 1/100 overnight broth
# Experimental: as §5, §6, §7, §8
# [9] = tested on: Serratia marcescens US 39; test: MIC, microtitre method (Table 10); assay type: cell-based; settings: heavy inoculum, 1/100 overnight broth
# Experimental: as §5, §6, §7, §8
# Shigella sonnei = test: MIC, microtitre method (Table 10); assay type: cell-based; settings: heavy inoculum, 1/100 overnight broth
# Experimental: as §5, §6, §7, §8
# Staph. aureus Oxford = test: MIC, microtitre method (Table 10); assay type: cell-based; settings: heavy inoculum, 1/100 overnight broth
# Experimental: as §5, §6, §7, §8
# Staph. aureus Russell = test: MIC, microtitre method (Table 10); assay type: cell-based; settings: heavy inoculum, 1/100 overnight broth
# Experimental: as §5, §6, §7, §8
# Strep. faecalis = test: MIC, microtitre method (Table 10); assay type: cell-based; settings: heavy inoculum, 1/100 overnight broth
# Experimental: as §5, §6, §7, §8
smiles,measurement,setting,value
CC(=O)N/C=C/SC1=C(C(=O)O)N2C(=O)C(C(C)OS(=O)(=O)O)C2C1 (stereo not drawn) [MM 13902],antibacterial activity,[1],possesses antibacterial activity
same,synergism when mixed with ampicillin,[2],synergyses its activity
same,Zone Diameter on Bioautography,Bacillus subtilis,15.0 mm
same,Zone Diameter on Bioautography,Enterobacter aerogenes,No Zone
same,Zone Diameter on Bioautography,Escherichia coli 10418,13.5 mm
same,Zone Diameter on Bioautography,Escherichia coli 311,10.5 mm
same,Zone Diameter on Bioautography,Klebsiella aerogenes [3],20.0 mm
same,Zone Diameter on Bioautography,Proteus mirabilis,13.5 mm
same,Zone Diameter on Bioautography,Proteus morganii,9.5 mm
same,Zone Diameter on Bioautography,Salmonella typhi,21.0 mm
same,Zone Diameter on Bioautography,[4],4.0 mm
same,Zone Diameter on Bioautography,[5],4.0 mm
CC(=O)N/C=C/[S+]([O-])C1=C(C(=O)O)N2C(=O)C(C(C)OS(=O)(=O)O)C2C1 (stereo not drawn) [MM 4550A],inhibition of monoamine oxidase,monoamine oxidase,does not inhibit
same,inhibition of carbonic anhydrase,carbonic anhydrase,does not inhibit
same,inhibition of dopa decarboxylase,dopa decarboxylase,does not inhibit
same,inhibition of trypsin,trypsin,does not inhibit
same,inhibition of chymotrypsin,chymotrypsin,does not inhibit
same,inhibition of urease,urease,does not inhibit
same,antibacterial activity,[6],possesses antibacterial activity
same,synergism when mixed with ampicillin,[2],synergizes its activity
same,"solubility in chloroform, diethylether and hydrocarbons",solubility,substantially insoluble
same,solubility in methanol,solubility,soluble
same,solubility in water,solubility,highly soluble
same,stability for isolation from mixtures,stability; monobasic salts and free acid,not sufficiently stable to isolate from mixtures
same,stability,stability; unsalted acid form,tends to be unstable
same,activity,"Klebsiella aerogenes [7]; Example 3, partially purified salt (2.18 g brown solid)","3,100 units/mg"
same,Zone Diameter on Bioautography,Bacillus subtilis,24.0 mm
same,Zone Diameter on Bioautography,Enterobacter aerogenes,6.5 mm
same,Zone Diameter on Bioautography,Escherichia coli 10418,20.0 mm
same,Zone Diameter on Bioautography,Klebsiella aerogenes [3],20.0 mm
same,Zone Diameter on Bioautography,Proteus morganii,16.0 mm
same,Zone Diameter on Bioautography,Salmonella typhi,19.5 mm
same,Zone Diameter on Bioautography,[4],13.0 mm
same,Zone Diameter on Bioautography,[5],12.0 mm
CC(=O)N/C=C/[S+]([O-])C1=C(C(=O)O)N2C(=O)C(C(C)OS(=O)(=O)O)C2C1 (stereo not drawn) [di-sodium salt of MM 4550A],activity,"Klebsiella aerogenes [7]; Example 3, yellowish powder (87 mg) after cellulose column","6,600 units/mg"
same,MIC,Bacillus subtilis A,25 mg/L
same,MIC,Enterobacter cloacae N1,100 mg/L
same,MIC,Kleb. aerogenes A,2.5 mg/L
same,MIC,Proteus mirabilis 13,10 mg/L
same,MIC,Proteus vulgaris WO 90,5 mg/L
same,MIC,Prov. stuartii,5 mg/L
same,MIC,Ps. aeruginosa A,> 100 mg/L
same,MIC,[8],5 mg/L
same,MIC,[9],20 mg/L
same,MIC,Shigella sonnei,5 mg/L
same,MIC,Staph. aureus Oxford,20 mg/L
same,MIC,Staph. aureus Russell,20 mg/L
same,MIC,Strep. faecalis,100 mg/L
